Laboratory results from paper PMC9598926, “Design and Synthesis of (Z)-5-(Substituted benzylidene)-3-cyclohexyl-2-thioxothiazolidin-4-one Analogues as Anti-Tyrosinase and Antioxidant Compounds: In Vitro and In Silico Insights” (Antioxidants, 2022).

How the values were obtained:
tyrosinase = experiment: Western blot of cytosolic tyrosinase in α–MSH/IBMX stimulated B16F10 cells; assay type: cell-based, murine; settings: 5, 10, 20 µM
Protocol: 2.15. Extraction of Cytosolic and Nuclear Proteins from Cells
Western blotting was used to determine tyrosinase and MITF protein levels. Briefly, B16F10 cells were seeded in 60 mm culture dishes in the presence or absence of α–MSH (1 µM) plus IBMX (200 µM) with or without analog 3 (5, 10, and 20 µM for final concentrations) for 24 h, washed twice with ice-cold PBS and centrifuged for 10 min at 12,000× g. Cell pellets were suspended in 10 mM Tris (pH 8.0) containing 0.1% NP-40, 1 mM DTT, 1.5 mM MgCl2, 1 mM PMSF, and protease inhibitors (GenDEPOT, Barker, TX, USA), incubated on ice for 15 min, and centrifuged for 10 min at 12,000× g at 4 °C. Supernatants were used as cytosolic fractions. […] The protein concentrations were determined using a bicinchoninic acid (BCA)™ assay kit (Pierce, Rockford, IL, USA). […]
Lysed protein samples from cells were boiled for 10 min in sample-loading buffer (0.1% bromophenol blue, 25% glycerol, 60 mM Tris-HCl (pH 6.8), 2% SDS, and 0.5% β-mercaptoethanol) at a volume ratio of 1:4. […] Immunoreactive proteins were detected using the enhanced chemiluminescence (ECL) detection reagent in the SuperSignal® West Pico Chemiluminescent Substrate kit (Advansta, San Jose, CA, USA). Western blot bands were visualized using a Davinch-Chemi imager™ (Davinch-K, Seoul, Korea), and quantification was conducted by densitometric analysis using CS analyzer software ver. […]

TRP-1 = experiment: RT-qPCR of TRP-1 mRNA in α–MSH/IBMX stimulated B16F10 cells; assay type: cell-based, murine
Protocol: 2.17. RNA Extraction and Quantitative Real Time-Polymerase Chain Reaction (RT-qPCR)
B16F10 cells were extracted using GeneAll RiboEx Total RNA extraction reagent (GeneAll Biotechnology, Seoul, Korea) and transferred to tubes, added with chloroform (0.1 mL), shaken vigorously for 30 sec, and centrifuged for 15 min at 12,000× g. Aqueous phases were transferred to fresh tubes, and equal volumes of isopropanol were added. Samples were then incubated at 4 °C for 10 min and centrifuged for 15 min at 12,000× g at 4 °C. Supernatants were discarded, and RNA pellets were washed once with 0.8 mL of 70% ethanol and by vortexing briefly and centrifuged for 5 min at 7500× g at 4 °C. Pellets were dried at 56 °C for 10–15 min and dissolved in 30 µL of diethyl pyrocarbonate (DEPC)-treated water. The levels of RNA were determined by a Nanodrop spectrophotometer (NANO-200, Allsheng, Hangzhou, China). Complementary DNA (cDNA) was synthesized from total RNA (2 µg) using SuPrime Script RT Premix (with random hexamer) cDNA Synthesis Kit (GeNet Bio, Daejeon, Korea). […]
To further investigate the anti-melanogenesis mechanism of analog 3, we examined its effect on the expressions of melanogenesis-associated genes and levels of melanogenesis-associated proteins in B16F10 cells. […] Nuclear levels of MITF protein were measured by Western blotting in α–MSH/IBMX-stimulated B16F10 cells. […]

## O=C1/C(=C/c2ccc(O)cc2O)SC(=S)N1C1CCCCC1 [Analog 3, (Z)-3-Cyclohexyl-5-(2,4-dihydroxybenzylidene)-2-thioxothiazolidin-4-one]
tyrosinase
  effect on α–MSH/IBMX-induced increase in tyrosinase expression (protein, cytosol): significantly and concentration-dependently reduced
TRP-1; α–MSH/IBMX stimulated
  effect on expression of TRP-1 (mRNA): significantly and concentration-dependently decreased
TRP-1; α–MSH/IBMX stimulated (2.2-fold), 5 µM
  TRP-1 gene expression: 1.3 fold
